Data from publication PMC6873218, “Functional Expression of Multidrug Resistance Protein 4 MRP4/ABCC4” (Slas Discovery, 2019).

Biological target: T1, Multidrug resistance protein 4 (MRP4/ABCC4) (Homo sapiens, UniProt O15439)
T1 construct: recombinant human MRP4-his6 in Sf9 membrane vesicles
T1 sequence (O15439 1-1325): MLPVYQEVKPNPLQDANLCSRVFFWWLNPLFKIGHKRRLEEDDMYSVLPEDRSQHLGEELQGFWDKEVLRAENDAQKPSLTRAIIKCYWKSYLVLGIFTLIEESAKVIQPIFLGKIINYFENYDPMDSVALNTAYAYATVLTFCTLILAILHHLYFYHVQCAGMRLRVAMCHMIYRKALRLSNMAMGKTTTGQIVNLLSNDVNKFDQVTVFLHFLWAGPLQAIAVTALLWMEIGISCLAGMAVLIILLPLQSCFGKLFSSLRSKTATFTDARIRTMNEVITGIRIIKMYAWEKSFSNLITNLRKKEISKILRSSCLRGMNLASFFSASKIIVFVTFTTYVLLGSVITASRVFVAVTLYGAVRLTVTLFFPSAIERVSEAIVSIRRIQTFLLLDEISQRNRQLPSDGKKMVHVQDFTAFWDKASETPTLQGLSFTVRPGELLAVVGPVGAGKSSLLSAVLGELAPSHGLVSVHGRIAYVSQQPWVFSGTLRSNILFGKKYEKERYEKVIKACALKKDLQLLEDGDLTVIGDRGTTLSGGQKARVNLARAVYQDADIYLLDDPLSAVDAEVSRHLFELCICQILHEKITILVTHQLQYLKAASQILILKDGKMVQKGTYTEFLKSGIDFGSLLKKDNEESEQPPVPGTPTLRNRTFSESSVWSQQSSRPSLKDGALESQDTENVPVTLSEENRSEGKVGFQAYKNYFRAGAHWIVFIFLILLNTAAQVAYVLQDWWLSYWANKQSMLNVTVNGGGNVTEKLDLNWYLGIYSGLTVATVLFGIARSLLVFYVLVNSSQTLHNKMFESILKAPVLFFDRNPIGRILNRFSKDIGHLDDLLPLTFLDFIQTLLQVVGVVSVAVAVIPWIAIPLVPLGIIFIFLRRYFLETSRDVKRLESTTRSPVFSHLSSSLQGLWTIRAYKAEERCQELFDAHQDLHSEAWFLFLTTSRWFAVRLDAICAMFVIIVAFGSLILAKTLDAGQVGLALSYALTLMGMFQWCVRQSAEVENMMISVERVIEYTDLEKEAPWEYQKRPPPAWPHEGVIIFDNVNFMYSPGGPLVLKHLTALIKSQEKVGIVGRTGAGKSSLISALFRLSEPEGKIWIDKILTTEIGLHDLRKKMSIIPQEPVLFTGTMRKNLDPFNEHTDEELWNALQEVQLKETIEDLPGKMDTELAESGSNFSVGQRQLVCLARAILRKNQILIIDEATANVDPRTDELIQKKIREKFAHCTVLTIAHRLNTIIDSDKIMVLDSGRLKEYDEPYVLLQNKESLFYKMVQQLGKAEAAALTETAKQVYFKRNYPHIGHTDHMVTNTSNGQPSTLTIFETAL
Experiment: fluorescent vesicular transport assay, ATP-dependent uptake in Sf9 MRP4 membrane vesicles against control vesicles (Km)
Type: biochemical

8-(2-[fluoresceinyl]aminoethylthio)adenosine-3′,5′-cyclic monophosphate [fluo-cAMP]
Km: 5.8 µM
